Experimental data from patent US10717729B2, “Thiamine-organic acid salt” (Purdue Research Foundation, priority 2018, dated 2020).
Where a name gives a salt, the structure may show the parent alone.

How the values were obtained:
[1] = dynamic moisture sorption, 25° C.
Experimental: Moisture sorption profiles were generated at 25° C. using an SGA-100 symmetrical gravimetric analyzer (TA Instrument, New Castle, Del.). The samples (5-20 mg) were exposed to 25% to 95% relative humidity (RH) at step size of 5% RH and from 95 to 99% RH at step size of 1% RH, with a maximum step time of 360 min. The equilibrium criteria were set to change of mass of less than 0.01% (w/w) for 5 min for each step. Nitrogen was used as the purge gas.

| stability in solution | relative humidity at which high/elevated hygroscopicity is seen [1] [% RH] | Compound |
| --- | --- | --- |
| exhibit instability in solution | 95 | Cc1ncc(C[n+]2csc(CCO)c2C)c(N)n1 [Thiamine Cl HCl, thiamine chloride hydrochloride] |
|  | 88 | Cc1ncc(C[n+]2csc(CCO)c2C)c(N)n1.[Cl-] [Thiamine Cl, thiamine chloride] |
